# Patent publication US20230014445A1, “ALLOSTERIC CHROMENONE INHIBITORS OF PHOSPHOINOSITIDE 3-KINASE (PI3K) FOR THE TREATMENT OF DISEASE” (Petra Pharma Corporation, priority 2021, published 2023)
# Tests used:
# [1] = target: T1, human full length PIK3KA Wild-type (p110α/p85α complex) (Homo sapiens, UniProt P42336); assay: PI3K-Alpha Kinase (PIK3CA) biochemical activity, wild-type (ADP-Glo); details: 20 uM ATP
# T1 construct: Recombinant, catalytically active human full length PIK3KA Wild-type and H1047R mutant were purchased; 6xHis (N); purchased EMD Millipore Sigma 14-602M
# How it was run: (§1)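 ADP formation, measured by ADP-Glo luminescence after reaction to about 10% ATP conversion at 27° C., gives 10-point 4-parameter IC50 curves normalized to no-enzyme and DMSO controls. Lipid substrate was PIP2diC8 or Soy PI at 50 uM, with 20 uM ATP. WT or H1047R p110α/p85α complex (1-5 nM) was preincubated 1 h with compound.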
# [2] = target: T2, human full length PIK3KA H1047R mutant (p110α/p85α complex) (Homo sapiens, UniProt P42336, H1047R); assay: PI3K-Alpha Kinase (PIK3CA) biochemical activity, H1047R mutant (ADP-Glo); details: 20 uM ATP
# T2 construct: Recombinant, catalytically active human full length PIK3KA Wild-type and H1047R mutant were purchased; 6xHis (N); purchased EMD Millipore Sigma 14-792M
# How it was run: as §1
# T2 sequence (P42336 whole entry H1047R): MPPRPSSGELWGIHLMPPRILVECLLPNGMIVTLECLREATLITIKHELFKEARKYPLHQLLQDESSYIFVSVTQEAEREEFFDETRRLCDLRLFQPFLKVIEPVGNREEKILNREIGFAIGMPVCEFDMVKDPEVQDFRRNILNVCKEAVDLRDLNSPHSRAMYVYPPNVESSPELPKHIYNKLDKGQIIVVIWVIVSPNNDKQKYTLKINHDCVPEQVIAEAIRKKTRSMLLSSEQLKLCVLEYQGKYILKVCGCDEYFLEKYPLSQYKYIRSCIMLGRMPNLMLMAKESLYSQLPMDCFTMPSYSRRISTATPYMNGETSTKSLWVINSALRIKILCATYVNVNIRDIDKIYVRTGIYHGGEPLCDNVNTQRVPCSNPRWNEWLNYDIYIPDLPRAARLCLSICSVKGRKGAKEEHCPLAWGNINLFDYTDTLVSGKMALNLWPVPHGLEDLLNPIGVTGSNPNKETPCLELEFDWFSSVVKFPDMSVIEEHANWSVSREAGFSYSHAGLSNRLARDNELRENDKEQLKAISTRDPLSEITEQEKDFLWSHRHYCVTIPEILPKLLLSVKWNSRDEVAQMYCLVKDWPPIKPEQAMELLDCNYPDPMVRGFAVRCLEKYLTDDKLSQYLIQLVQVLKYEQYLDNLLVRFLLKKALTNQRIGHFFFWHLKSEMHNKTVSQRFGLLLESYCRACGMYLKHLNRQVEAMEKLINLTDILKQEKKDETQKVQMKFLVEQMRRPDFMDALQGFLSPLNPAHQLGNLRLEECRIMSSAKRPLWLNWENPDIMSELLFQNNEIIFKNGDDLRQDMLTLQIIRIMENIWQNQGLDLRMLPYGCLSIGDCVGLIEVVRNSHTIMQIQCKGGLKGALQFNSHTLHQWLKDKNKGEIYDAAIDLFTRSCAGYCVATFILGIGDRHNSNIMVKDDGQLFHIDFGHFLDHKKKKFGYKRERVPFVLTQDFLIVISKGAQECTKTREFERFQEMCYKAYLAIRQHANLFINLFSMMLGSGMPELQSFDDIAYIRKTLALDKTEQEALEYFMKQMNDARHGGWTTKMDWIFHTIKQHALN
# T2 sequence (P27986 whole entry partner): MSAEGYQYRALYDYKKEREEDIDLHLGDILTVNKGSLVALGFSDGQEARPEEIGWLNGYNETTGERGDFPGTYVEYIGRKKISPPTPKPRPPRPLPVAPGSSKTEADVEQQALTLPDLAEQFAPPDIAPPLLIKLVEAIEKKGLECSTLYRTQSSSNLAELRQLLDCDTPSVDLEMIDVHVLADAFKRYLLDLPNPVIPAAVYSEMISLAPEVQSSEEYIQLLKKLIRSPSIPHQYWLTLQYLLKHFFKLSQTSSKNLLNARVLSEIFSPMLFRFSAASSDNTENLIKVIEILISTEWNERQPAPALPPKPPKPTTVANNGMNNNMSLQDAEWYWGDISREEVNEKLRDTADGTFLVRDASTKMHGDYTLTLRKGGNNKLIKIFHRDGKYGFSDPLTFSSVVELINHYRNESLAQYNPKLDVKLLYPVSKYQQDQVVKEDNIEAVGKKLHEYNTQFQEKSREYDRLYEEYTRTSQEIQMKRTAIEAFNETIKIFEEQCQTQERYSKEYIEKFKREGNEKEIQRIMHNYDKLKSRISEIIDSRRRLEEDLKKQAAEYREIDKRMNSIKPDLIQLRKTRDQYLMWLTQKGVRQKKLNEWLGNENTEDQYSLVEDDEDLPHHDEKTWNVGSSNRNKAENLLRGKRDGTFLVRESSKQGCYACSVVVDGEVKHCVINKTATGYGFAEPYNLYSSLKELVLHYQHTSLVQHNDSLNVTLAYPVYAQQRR
Compound,IC50 ([1]; Soy PI lipid substrate),IC50 ([2]; Soy PI lipid substrate),IC50 ([1]; PIP2diC8 lipid substrate),IC50 ([2]; PIP2diC8 lipid substrate)
"COC(=O)c1ccccc1NC(C)c1cc(C)cc2c(=O)cc(-c3c[nH]c(=O)cn3)oc12 (single isomer, unassigned; isomer 2) [Example 56, Methyl 2-[1-[6-methyl-4-oxo-2-(6-oxo-1H-pyrazin-3-yl)chromen-8-yl]ethylamino]benzoate, Isomer 2]",> 10000 nM,1000 to 5000 nM,–,–
"Cc1cc(C(C)Nc2ccccc2C(=O)O)c2oc(-c3cccc(C(F)F)n3)cc(=O)c2c1 (single isomer, unassigned; isomer 2) [Example 71, 2-[1-[2-[6-(Difluoromethyl)-2-pyridyl]-6-methyl-4-oxo-chromen-8-yl]ethylamino]benzoic acid, Isomer 2]",5000 to 10000 nM,< 500 nM,–,–
"Cc1cc(C(C)Nc2ccccc2C(=O)O)c2oc(-c3nnc(-c4ccc(C#N)cc4)o3)cc(=O)c2c1 (single isomer, unassigned; isomer 2) [Example 90, 2-[1-[2-[5-(4-Cyanophenyl)-1,3,4-oxadiazol-2-yl]-6-methyl-4-oxo-chromen-8-yl]ethylamino]benzoic acid, Isomer 2]",> 10000 nM,< 500 nM,–,–
"Cc1cc(C(C)Nc2ccccc2C(=O)O)c2oc(-c3ccc(OC(C)C)nc3)cc(=O)c2c1 (stereo not drawn) [Example 1, 2-[1-[2-(6-Isopropoxy-3-pyridyl)-6-methyl-4-oxo-chromen-8-yl]ethylamino]benzoic acid 2,2,2-trifluoroacetic acid]",> 10000 nM,500 to 1000 nM,–,–
"COc1ncc(-c2cc(=O)c3cc(C)cc(C(C)Nc4ccccc4C(=O)O)c3o2)cn1 (stereo not drawn) [Example 2, 2-[1-[2-(2-Methoxypyrimidin-5-yl)-6-methyl-4-oxo-chromen-8-yl]ethylamino]benzoic acid 2,2,2-trifluoroacetic acid]",5000 to 10000 nM,< 500 nM,–,–
"Cc1cc(C(C)Nc2ccccc2C(=O)O)c2oc(-c3ccc(S(C)(=O)=O)nc3)cc(=O)c2c1 (stereo not drawn) [Example 7, 2-[1-[6-Methyl-2-(6-methylsulfonyl-3-pyridyl)-4-oxo-chromen-8-yl]ethylamino]benzoic acid 2,2,2-trifluoroacetic acid]",> 10000 nM,< 500 nM,–,–
"Cc1cc(C(C)Nc2ccccc2C(=O)O)c2oc(-c3ccc(F)nc3)cc(=O)c2c1 (stereo not drawn) [Example 9, 2-[1-[2-(6-Fluoro-3-pyridyl)-6-methyl-4-oxo-chromen-8-yl]ethylamino]benzoic acid 2,2,2-trifluoroacetic acid]",5000 to 10000 nM,< 500 nM,–,–
"COc1cccc(-c2cc(=O)c3cc(C)cc(C(C)Nc4ccccc4C(=O)O)c3o2)n1 (stereo not drawn) [Example 11, 2-[1-[2-(6-Methoxy-2-pyridyl)-6-methyl-4-oxo-chromen-8-yl]ethylamino]benzoic acid 2,2,2-trifluoroacetic acid]",500 to 1000 nM,< 500 nM,–,–
"Cc1cc(C(C)Nc2ccccc2C(=O)O)c2oc(-c3cnc(C)nc3)cc(=O)c2c1 (stereo not drawn) [Example 13, 2-[1-[6-Methyl-2-(2-methylpyrimidin-5-yl)-4-oxo-chromen-8-yl]ethylamino]benzoic acid 2,2,2-trifluoroacetic acid]",> 10000 nM,500 to 1000 nM,–,–
"Cc1cc(C(C)Nc2cccc(F)c2C(=O)O)c2oc(-c3cnn(-c4ccc(C#N)cc4)c3)cc(=O)c2c1 (stereo not drawn) [Example 101, 2-[1-[2-[1-(4-Cyanophenyl)pyrazol-4-yl]-6-methyl-4-oxo-chromen-8-yl]ethylamino]-6-fluoro-benzoic acid 2,2,2-trifluoroacetic acid]",500 to 1000 nM,< 500 nM,–,–

# Second part, the molecule after the results:
IC50 ([1]; Soy PI lipid substrate),IC50 ([2]; Soy PI lipid substrate),IC50 ([1]; PIP2diC8 lipid substrate),IC50 ([2]; PIP2diC8 lipid substrate),Compound
> 10000 nM,< 500 nM,–,–,"Cc1cc(C(C)Nc2ccccc2C(=O)O)c2oc(-c3ccc(S(C)(=O)=O)nc3)cc(=O)c2c1 (single isomer, unassigned; isomer 2) [Example 40, 2-[1-[6-Methyl-2-(6-methylsulfonyl-3-pyridyl)-4-oxo-chromen-8-yl]ethylamino]benzoic acid, Isomer 2]"
1000 to 5000 nM,< 500 nM,–,–,"Cc1cc(C(C)Nc2ccccc2C(=O)O)c2oc(-c3cnn(-c4cccnc4)c3)cc(=O)c2c1 (single isomer, unassigned; isomer 2) [Example 50, 2-[1-[6-Methyl-4-oxo-2-[1-(3-pyridyl)pyrazol-4-yl]chromen-8-yl]ethylamino]benzoic acid, Isomer 2]"
1000 to 5000 nM,< 500 nM,–,–,"COc1cccc(-n2cc(-c3cc(=O)c4cc(C)cc(C(C)Nc5ccccc5C(=O)O)c4o3)nn2)c1 (single isomer, unassigned; isomer 2) [Example 98, 2-[1-2-[1-(3-Methoxyphenyl)triazol-4-yl]-6-methyl-4-oxo-chromen-8-yl]ethylamino]benzoic acid, Isomer 2]"
> 10000 nM,< 500 nM,–,–,"Cc1cc(C(C)Nc2ccccc2C(=O)O)c2oc(-c3cnc(OC(C)C)nc3)cc(=O)c2c1 (stereo not drawn) [Example 6, 2-[1-[2-(2-Isopropoxypyrimidin-5-yl)-6-methyl-4-oxo-chromen-8-yl]ethylamino]benzoic acid 2,2,2-trifluoroacetic acid]"
5000 to 10000 nM,< 500 nM,–,–,"Cc1cc(C(C)Nc2ccccc2C(=O)O)c2oc(-c3ccc(C(F)(F)F)nc3)cc(=O)c2c1 (stereo not drawn) [Example 8, 2-[1-[6-Methyl-4-oxo-2-[6-(trifluoromethyl)-3-pyridyl]chromen-8-yl]ethylamino]benzoic acid 2,2,2-trifluoroacetic acid]"
1000 to 5000 nM,500 to 1000 nM,–,–,"Cc1cc(C(C)Nc2ccccc2C(=O)O)c2oc(-c3cc(C#N)ccn3)cc(=O)c2c1 (stereo not drawn) [Example 10, 2-[1-[2-(4-Cyano-2-pyridyl)-6-methyl-4-oxo-chromen-8-yl]ethylamino]benzoic acid 2,2,2-trifluoroacetic acid]"
1000 to 5000 nM,< 500 nM,–,–,"COc1ccc(-c2cc(=O)c3cc(C)cc(C(C)Nc4ccccc4C(=O)O)c3o2)cn1 (stereo not drawn) [Example 12, 2-[1-[2-(6-Methoxy-3-pyridyl)-6-methyl-4-oxo-chromen-8-yl]ethylamino]benzoic acid 2,2,2-trifluoroacetic acid]"
5000 to 10000 nM,< 500 nM,–,–,"Cc1cc(C(C)Nc2ccccc2C(=O)O)c2oc(-c3ccc(F)cn3)cc(=O)c2c1 (stereo not drawn) [Example 23, 2-[1-[2-(5-Fluoro-2-pyridyl)-6-methyl-4-oxo-chromen-8-yl]ethylamino]benzoic acid 2,2,2-trifluoroacetic acid]"
–,–,1000 to 5000 nM,500 to 1000 nM,"Cc1cc(C(C)Nc2ccccc2C(=O)O)c2oc(-c3cnn(C)c3)cc(=O)c2c1 (stereo not drawn) [Example 47, 2-[1-[6-Methyl-2-(1-methylpyrazol-4-yl)-4-oxo-chromen-8-yl]ethylamino]benzoic acid]"
5000 to 10000 nM,< 500 nM,–,–,"Cc1cc(C(C)Nc2ccccc2C(=O)O)c2oc(-c3cnn(-c4cccnc4)c3)cc(=O)c2c1 (stereo not drawn) [Example 48, 2-[1-[6-Methyl-4-oxo-2-[1-(3-pyridyl)pyrazol-4-yl]chromen-8-yl]ethylamino]benzoic acid 2,2,2-trifluoroacetic acid]"
> 10000 nM,< 500 nM,–,–,"Cc1cc(C(C)Nc2cccc(F)c2C(=O)O)c2oc(-c3ccccn3)cc(=O)c2c1 (stereo not drawn) [Example 100, 2-Fluoro-6-[1-[6-methyl-4-oxo-2-(2-pyridyl)chromen-8-yl]ethylamino]benzoic acid 2,2,2-trifluoroacetic acid]"
